In patent publication US20130035358A1, “Bis Aromatic Compounds for Use as LTC4 Synthase Inhibitors” (priority 2010, published 2013):
In brackets after ≈: the same amount, converted by molar mass.

What was measured:
LTC4 synthase = biological target: T1, LTC4 synthase (Homo sapiens, UniProt Q16873); experiment: Test 1 in vitro assay: LTC4 synthase converts LTA4 to LTC4, HTRF detection; format: biochemical; set-up: made in house; host or cells: Pichia pastoris; conditions: Test 1 (unless otherwise indicated)
T1 sequence (Q16873 1-150): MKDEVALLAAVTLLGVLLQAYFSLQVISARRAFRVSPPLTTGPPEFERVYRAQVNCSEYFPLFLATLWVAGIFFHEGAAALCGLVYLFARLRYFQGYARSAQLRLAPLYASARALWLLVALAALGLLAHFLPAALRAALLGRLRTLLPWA
Procedure: In the assay, LTC4 synthase catalyses the reaction where the substrate LTA4 is converted to LTC4. Recombinant human LTC4 synthase is expressed in Piccia pastoralis and the purified enzyme is dissolved in 25 mM tris-buffer pH 7.8 supplemented with 0.1 mM glutathione (GSH) and stored at −80° C. The assay is performed in phosphate buffered saline (PBS) pH 7.4 and 5 mM GSH in 384-well plates.
The following is added chronologically to each well:
1. 48 μL LTC4 synthase in PBS with 5 mM GSH. The total protein concentration in this solution is 0.5 μg/mL. 2. 1 μL inhibitor in DMSO (final concentration 10 μM). 3. Incubation of the plate at room temperature for 10 min. 4. 1 μL LTA4 (final concentration 2.5 μM). 5. Incubation of the plate at room temperature for 5 min. 6. 10 μL of the incubation mixture is analysed using homogenous time resolved fluorescent (HTRF) detection.
IC50 values for title compounds of the examples are depicted in the tables hereinafter (where, they are the values obtained using Test 1, unless otherwise indicated).

[1] = Thermodynamic aqueous solubility in USP phosphate buffer (Example 25); format: physicochemical; conditions: aqueous buffer, thermodynamic from solid; USP phosphate buffer pH 7.4, 24 h at 20° C., LC-MS/MS; read-out: Thermodynamic aq solubility
Procedure: The method described here was developed to accurately determine the aqueous solubility of compounds of the invention in buffer solution at a given pH.
Solid material (1 mg) of test compound is added to a glass vial followed by 1 ml of buffer solution (pH 7.4 if another pH not is stated). The solution is left on an orbital shaker for 24 h at 20° C. After incubation, the remaining solid material is separated from solution and the solubility is quantified using LC-MS/MS.
Prepare 0.2 M monobasic potassium phosphate solution by dissolving 27.22 g of KH2PO4 (MW=136.09 g/mol) in water, dilute with water to 1000 mL.
Add 250 mL of the monobasic potassium phosphate solution in a 1000 mL volumetric flask together with 195.5 mL 0.2M NaOH (aq). Add water to 1000 mL. Check pH.
Compounds of the invention/examples to be tested were provided as solid material, weighed into glass vials (2 mL). Each vial contains approximately 1 mg solid compound, two vials/compound are prepared, i.e. duplicate samples of each compound. If a freshly prepared 10 mM DMSO stock solution was available, this solution was used for MS optimization and preparation of standards. If a DMSO-stock solution was not available, a 10 mM solution from solid material 1 mg was prepared.
• Test compounds are employed as solid material. Since duplicate samples are prepared for each compound, each test compound arrives in two vials (1+1 mg). Samples are denoted as sample 1 and 2. • Note amount of substance in each vial. Add USP phosphate buffer pH 7.4 (1 mL) to each sample vial and seal vials using screw caps. Determine whether the solutions are saturated or if compounds are dissolved, note appearance and time. Start incubation; the samples are incubated on an orbital shaker (450 rpm) at 20° C. for 24 hours.
• Take out the 1 mM DMSO-stock solutions of compounds that are to be tested from freezer. If no 1 mM solutions are available, use master solutions with concentration of 10 mM. Allow the solutions to thaw at rt. • Collect two 96-deep well plates, glass inserts, sealing film, and an 8-channel expandable pipette with tall tips. • Abort shaking after 24 hour. • Note if samples are saturated or if compounds have dissolved. • Transfer 720 μL of sample slurry from each sample vial into glass inserts in a 96-deep well plate using an 8-channel expandable pipette. Samples 1 and 2 are transferred to separate plates. Thus, all samples 1 are placed in one plate and all samples 2 in the second plate. • Seal the plates using sealing film. • Centrifuge the plates at 3000 rpm for 15 min at rt. Set acceleration to 9 and brake to 7 (9=fastest acc/brake, 0=slowest acc/brake). • Transfer the supernatants to new glass inserts using an 8-channel pipette, centrifuge samples a second time. • Repeat the procedure above, i.e. centrifuge samples a third time. • After the third centrifugation, transfer supernatant to glass vials, seal vials with screw caps. Control that the solutions are clear and that no particles are present in sample. If solid material is observed, an additional centrifugation step is performed. • Standards are prepared from DMSO-stock solutions (1 or 10 mM). For each compound, transfer […] 1 mM solution to a glass vial, add DMSO (90 μL) to reach a final concentration of 100 μM, seal with screw cap and mix solution quickly on a vortex mixer. Further dilute the 100 μM solution with a 1:1 mixture of acetonitrile and USP phosphate buffer (pH 7.4) to standards with concentration 1000, 500, 100, 25, 2, and 1 nM. Standards are prepared in test tubes.
• Place standards in autosampler. • Try out the dilution of solubility samples so that their response will be within the standard curve. Dilute solubility sample one (or two) with the 1:1 mixture of acetonitrile:buffer. […]

| Compound | IC50 (LTC4 synthase; Table 2) [nM] | solubility thermodynamic at 24 h [1] [µM] | IC50 (LTC4 synthase) [nM] |
| --- | --- | --- | --- |
| CCCCCCC(=O)c1ccc(C(=O)c2ccc(N(C)c3ccc(Cl)cc3)cn2)cc1C(=O)O [1:17, 5-{5-[(4-Chlorophenyl)(methyl)amino]picolinoyl}-2-heptanoylbenzoic acid] | – | 153 (≈ 73.3 µg/mL) | – |
| O=C(c1ccc(C(=O)c2ccc3c(c2)OCCO3)c(C(=O)O)c1)c1ccc(N(CC2CC2)c2ccc(Cl)cc2)cn1 [Example 4, 5-(5-((4-Chlorophenyl)(cyclopropylmethyl)amino)picolinoyl)-2-(2,3-dihydrobenzo-[b][1,4]dioxine-6-carbonyl)benzoic acid] | – | – | 21 |
| COc1ccc(C(=O)c2ccc(C(=O)c3ccc(N(CC4CC4)c4ccc(Cl)cc4)cn3)cc2C(=O)O)cc1 [1:4, 5-{5-[(4-Chlorophenyl)(cyclopropylmethyl)amino]picolinoyl}-2-(4-methoxy-benzoyl)benzoic acid] | – | 2210 (≈ 1200 µg/mL) | – |
| CN(c1ccc(Cl)cc1)c1ccc(C(=O)c2ccc(C(=O)C34CC5CC(CC(C5)C3)C4)c(C(=O)O)c2)nc1 [Example 12, 2-(Adamantane-1-carbonyl)-5-(5-((4-chlorophenyl)(methyl)amino)picolinoyl)benzoic acid] | 65 | 15 (≈ 7.94 µg/mL) | – |
| COc1cccc(C(=O)c2ccc(C(=O)c3ccc(N(CC4CC4)c4ccc(Cl)cc4)cn3)cc2C(=O)O)c1 [Example 13, 5-(5-((4-Chlorophenyl)(cyclopropylmethyl)amino)picolinoyl)-2-(3-methoxybenzoyl)benzoic acid] | 18 | – | – |
| COc1cccc(C(=O)c2ccc(C(=O)c3ccc(Cc4ccc(Cl)cc4)cn3)cc2C(=O)O)c1 [Example 6, 5-(5-(4-Chlorobenzyl)picolinoyl)-2-(3-methoxybenzoyl)benzoic acid] | – | 1900 (≈ 924 µg/mL) | 155 |
| CN(c1ccc(Cl)cc1)c1ccc(C(=O)c2ccc(C(=O)CCC3CCCCC3)c(C(=O)O)c2)nc1 [Example 18, 5-(5-((4-Chlorophenyl)(methyl)amino)picolinoyl)-2-(3-cyclohexylpropanoyl)benzoic acid] | 59 | 37 (≈ 18.7 µg/mL) | – |
| CN(c1ccc(Cl)cc1)c1ccc(C(=O)c2ccc(C(=O)CC3CCCC3)c(C(=O)O)c2)nc1 [Example 20, 5-(5-((4-Chlorophenyl)(methyl)amino)picolinoyl)-2-(2-cyclopentylacetyl)benzoic acid] | 81 | – | – |
| O=C(c1ccc(C(=O)c2cccc(O)c2)c(C(=O)O)c1)c1ccc(N(CC2CC2)c2ccc(Cl)cc2)cn1 [Example 14, 5-(5-((4-Chlorophenyl)(cyclopropylmethyl)amino)picolinoyl)-2-(3-hydroxybenzoyl)benzoic acid] | 30 | 1210 (≈ 637 µg/mL) | – |
| O=C(c1ccc(Cl)cc1)c1ccc(C(=O)c2ccc(C(=O)c3ccccc3)c(C(=O)O)c2)nc1 [Example 5, 2-Benzoyl-5-(5-(4-chlorobenzoyl)picolinoyl)benzoic acid] | – | – | 1290 |
| COc1ccc(C(=O)c2ccc(C(=O)c3ccc(N(CC4CC4)c4ccc(Cl)cc4F)cn3)cc2C(=O)O)cc1 [1:5, 5-{5-[(4-Chloro-2-fluorophenyl)(cyclopropylmethyl)amino]picolinoyl}-2-(4-methoxybenzoyl)benzoic acid] | – | 2480 (≈ 1380 µg/mL) | – |

More lines, now with the values ahead:

| IC50 (LTC4 synthase; Table 2) [nM] | solubility thermodynamic at 24 h [1] [µM] | IC50 (LTC4 synthase) [nM] | Compound |
| --- | --- | --- | --- |
| 22 | 403 (≈ 218 µg/mL) | – | COc1ccc(C2(C(=O)c3ccc(C(=O)c4ccc(N(C)c5ccc(Cl)cc5)cn4)cc3C(=O)O)CC2)cc1 [Example 10, 5-(5-((4-Chlorophenyl)(methyl)amino)picolinoyl)-2-(1-(4-methoxyphenyl)cyclopropanecarbonyl)benzoic acid] |
| – | 680 (≈ 347 µg/mL) | – | CN(c1ccc(Cl)cc1)c1ccc(C(=O)c2ccc(C(=O)C3(c4ccccc4)CC3)c(C(=O)O)c2)nc1 [1:19, 5-{5-[(4-Chlorophenyl)(methyl)amino]picolinoyl}-2-(1-phenylcyclopropyl-carbonyl)benzoic acid] |
| 55 | – | – | CN(c1ccc(Cl)cc1)c1ccc(C(=O)c2ccc(C(=O)C(C)(C)c3ccccc3)c(C(=O)O)c2)nc1 [Example 16, 5-(5-((4-Chlorophenyl)(methyl)amino)picolinoyl)-2-(2-methyl-2-phenylpropanoyl)benzoic acid] |
| – | – | 52 | CN(c1ccc(Cl)cc1)c1ccc(C(=O)c2ccc(C(=O)c3cccc(C=O)c3)c(C(=O)O)c2)nc1 [Example 3, 5-(5-((4-Chlorophenyl)(methyl)amino)picolinoyl)-2-(3-formylbenzoyl)benzoic acid] |
| – | – | 83 | CN(c1ccc(Cl)cc1)c1ccc(C(=O)c2ccc(C(=O)c3cccc(O)c3)c(C(=O)O)c2)nc1 [Example 7, 5-(5-((4-Chlorophenyl)(methyl)amino)picolinoyl)-2-(3-hydroxybenzoyl)benzoic acid] |
| 41 | 125 (≈ 68.9 µg/mL) | – | O=C(c1ccc(C(=O)C2(c3ccccc3)CC2)c(C(=O)O)c1)c1ccc(N(CC2CC2)c2ccc(Cl)cc2)cn1 [Example 8, 5-(5-((4-Chlorophenyl)(cyclopropylmethyl)amino)picolinoyl)-2-(1-phenylcyclopropanecarbonyl)benzoic acid] |
| – | – | 34 | CN(c1ccc(Cl)cc1)c1ccc(C(=O)c2ccc(C(=O)c3cccc(C(Cl)Cl)c3)c(C(=O)O)c2)nc1 [Example 2, 5-(5-((4-Chlorophenyl)(methyl)amino)picolinoyl)-2-(3-(dichloromethyl)benzoyl)-benzoic acid] |
| – | 2580 (≈ 1210 µg/mL) | – | CN(c1ccc(Cl)cc1)c1ccc(C(=O)c2ccc(C(=O)c3ccccc3)c(C(=O)O)c2)nc1 [Example 1:1, 2-Benzoyl-5-{5-[(4-chlorophenyl)(methyl)amino]picolinoyl}benzoic acid] |
| 141 | – | – | CN(c1ccc(Cl)cc1)c1ccc(C(=O)c2ccc(C(=O)C3CC3c3ccccc3)c(C(=O)O)c2)nc1 (centres unmarked) [Example 19, 5-(5-((4-Chlorophenyl)(methyl)amino)picolinoyl)-2-(2-phenylcyclopropanecarbonyl)benzoic acid] |
| 235 | – | – | CN(c1ccc(Cl)cc1)c1ccc(C(=O)c2ccc(C(=O)CC(C)(C)C)c(C(=O)O)c2)nc1 [Example 17, 5-(5-((4-Chlorophenyl)(methyl)amino)picolinoyl)-2-(3,3-dimethylbutanoyl)benzoic acid] |
| 192 | – | – | COc1cccc(CC(=O)c2ccc(C(=O)c3ccc(N(C)c4ccc(Cl)cc4)cn3)cc2C(=O)O)c1 [Example 21] |
| 76 | – | – | CN(c1ccc(Cl)cc1)c1ccc(C(=O)c2ccc(C(=O)C3(c4ccccc4)CCCC3)c(C(=O)O)c2)nc1 [Example 11, 5-(5-((4-Chlorophenyl)(methyl)amino)picolinoyl)-2-(1-phenylcyclopentanecarbonyl)benzoic acid] |
